Test results: patent US20240300932A1, “N-PHENYLIMINE DERIVATIVE AND PREPARATION METHOD AND USE THEREOF” (Guizhou University, priority 2023, published 2024)

Legend:
Setaria viridis = assay: Post-emergence herbicidal activity test (stem and leaf spray, pot culture); format: in vivo; conditions: 3 weeks after spraying
Procedure, shortened: (§1)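 Seeds soaked 6 h at 25 °C, germinated at 28 °C, sown in loam pots and thinned to 10 plants/pot. At 2–3 leaves, plants received a single spray-tower application of 10, 5 or 2.5 g/mu. Fresh-weight control was graded 0–5 after 3 weeks.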

Abutilon theophrasti = assay: as above; format: in vivo; conditions: 3 weeks after spraying
Procedure, shortened: as §1

Portulaca oleracea = assay: as above; format: in vivo; conditions: 3 weeks after spraying
Procedure, shortened: as §1

Amaranthus retroflexus = assay: as above; format: in vivo; conditions: 3 weeks after spraying
Procedure, shortened: as §1

Echinochloa crusgalli = assay: as above; format: in vivo; conditions: 3 weeks after spraying
Procedure, shortened: as §1

Trifoliumre pensL. = assay: Post-emergence herbicidal activity test (stem and leaf spray, pot culture); format: in vivo; conditions: 3 weeks after spraying
Procedure, shortened: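 Rates of 10, 5 and 2.5 g/mu were applied in a single spray-tower treatment to 2–3-leaf plants, thinned to 10 per pot. Formulation: acetone solution, Tween 80, 1.5 L/ha methyl oleate synergist. Weed response assessed after 3 further greenhouse weeks; mean of three experiments.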

Row | Compound | Post-emergence herbicidal activity, S. viridis (grade) (Setaria viridis; dosage 2.5 g/mu) | Post-emergence herbicidal activity, S. viridis (grade) (Setaria viridis; dosage 5 g/mu) | Post-emergence herbicidal activity, S. viridis (grade) (Setaria viridis; dosage 10 g/mu) | Post-emergence herbicidal activity, A. theophrasti (grade) (Abutilon theophrasti; dosage 2.5 g/mu) | Post-emergence herbicidal activity, A. theophrasti (grade) (Abutilon theophrasti; dosage 5 g/mu) | Post-emergence herbicidal activity, A. theophrasti (grade) (Abutilon theophrasti; dosage 10 g/mu) | Post-emergence herbicidal activity, P. oleracea (grade) (Portulaca oleracea; dosage 2.5 g/mu) | Post-emergence herbicidal activity, P. oleracea (grade) (Portulaca oleracea; dosage 5 g/mu) | Post-emergence herbicidal activity, P. oleracea (grade) (Portulaca oleracea; dosage 10 g/mu) | Post-emergence herbicidal activity, A. retroflexus (grade) (Amaranthus retroflexus; dosage 2.5 g/mu) | Post-emergence herbicidal activity, A. retroflexus (grade) (Amaranthus retroflexus; dosage 5 g/mu) | Post-emergence herbicidal activity, A. retroflexus (grade) (Amaranthus retroflexus; dosage 10 g/mu) | Post-emergence herbicidal activity, E. crusgalli (grade) (Echinochloa crusgalli; dosage 2.5 g/mu) | Post-emergence herbicidal activity, E. crusgalli (grade) (Echinochloa crusgalli; dosage 5 g/mu) | Post-emergence herbicidal activity, E. crusgalli (grade) (Echinochloa crusgalli; dosage 10 g/mu) | melting point | Post-emergence herbicidal activity, Trifoliumre pensL. (grade) (Trifoliumre pensL.; dosage 2.5 g/mu) | Post-emergence herbicidal activity, Trifoliumre pensL. (grade) (Trifoliumre pensL.; dosage 5 g/mu) | Post-emergence herbicidal activity, Trifoliumre pensL. (grade) (Trifoliumre pensL.; dosage 10 g/mu)
1 | Cc1ccc(Br)cc1-c1noc(COc2cc(N3C(=O)C4=C(CCCC4)C3=O)c(F)cc2Cl)n1 [Compound A1, 2-(5-((3-(5-bromo-2-tolyl)-1,2,4-oxadiazole-5-yl)methoxy)-4-chloro-2-fluorophenyl)-4,5,6,7-tetrahydro-1H-isoindole-1,3(2H)-dione] | 2 (Grade 2: the growth control rate is greater than or equal to 20% and less than 40%) | 3 (Grade 3: the growth control rate is greater than or equal to 40% and less than 60%) | 4 (Grade 4: the growth control rate is greater than or equal to 60% and less than 85%) | 5 (Grade 5: the growth control rate is greater than or equal to 85%) | 5 (Grade 5: the growth control rate is greater than or equal to 85%) | 5 (Grade 5: the growth control rate is greater than or equal to 85%) | 4 (Grade 4: the growth control rate is greater than or equal to 60% and less than 85%) | 5 (Grade 5: the growth control rate is greater than or equal to 85%) | 5 (Grade 5: the growth control rate is greater than or equal to 85%) | 5 (Grade 5: the growth control rate is greater than or equal to 85%) | 5 (Grade 5: the growth control rate is greater than or equal to 85%) | 5 (Grade 5: the growth control rate is greater than or equal to 85%) | 1 (Grade 1: the growth control rate is greater than or equal to 5% and less than 20%) | 2 (Grade 2: the growth control rate is greater than or equal to 20% and less than 40%) | 3 (Grade 3: the growth control rate is greater than or equal to 40% and less than 60%) | 101 to 105 °C | 4 (Grade 4: the growth control rate is greater than or equal to 60% and less than 85%) | 5 (Grade 5: the growth control rate is greater than or equal to 85%) | 5 (Grade 5: the growth control rate is greater than or equal to 85%)
2 | O=C(COC(=O)c1cc(N2C(=O)C3=C(CCCC3)C2=O)c(F)cc1Cl)c1ccc(Cl)cc1 [Compound E1, 2-(4-chlorophenyl)-2-oxoethyl-2-chloro-5-(1,3-dioxo-1,3,4,5,6,7-hexahydro-2H-isoindole-2-yl)-4-fluorobenzoate] | – | – | 4 (Grade 4: the growth control rate is greater than or equal to 60% and less than 85%) | – | – | 5 (Grade 5: the growth control rate is greater than or equal to 85%) | – | – | 5 (Grade 5: the growth control rate is greater than or equal to 85%) | – | – | 5 (Grade 5: the growth control rate is greater than or equal to 85%) | – | – | 3 (Grade 3: the growth control rate is greater than or equal to 40% and less than 60%) | 138 to 141 °C | – | – | 5 (Grade 5: the growth control rate is greater than or equal to 85%)
3 | O=C(COc1cc(N2C(=O)C3=C(CCCC3)C2=O)c(F)cc1Cl)c1ccccc1 [Compound C1, 2-(4-chloro-2-fluoro-5-(2-oxo-2-phenylethoxy)phenyl)-4,5,6,7-tetrahydro-1H-isoindole-1,3(2H)-dione] | 2 (Grade 2: the growth control rate is greater than or equal to 20% and less than 40%) | 3 (Grade 3: the growth control rate is greater than or equal to 40% and less than 60%) | 4 (Grade 4: the growth control rate is greater than or equal to 60% and less than 85%) | 5 (Grade 5: the growth control rate is greater than or equal to 85%) | 5 (Grade 5: the growth control rate is greater than or equal to 85%) | 5 (Grade 5: the growth control rate is greater than or equal to 85%) | 5 (Grade 5: the growth control rate is greater than or equal to 85%) | 5 (Grade 5: the growth control rate is greater than or equal to 85%) | 5 (Grade 5: the growth control rate is greater than or equal to 85%) | 5 (Grade 5: the growth control rate is greater than or equal to 85%) | 5 (Grade 5: the growth control rate is greater than or equal to 85%) | 5 (Grade 5: the growth control rate is greater than or equal to 85%) | 1 (Grade 1: the growth control rate is greater than or equal to 5% and less than 20%) | 2 (Grade 2: the growth control rate is greater than or equal to 20% and less than 40%) | 3 (Grade 3: the growth control rate is greater than or equal to 40% and less than 60%) | 124 to 131 °C | 5 (Grade 5: the growth control rate is greater than or equal to 85%) | 5 (Grade 5: the growth control rate is greater than or equal to 85%) | 5 (Grade 5: the growth control rate is greater than or equal to 85%)
4 | N#Cc1ccc(C(=O)COc2cc(N3C(=O)C4=C(CCCC4)C3=O)c(F)cc2Cl)cc1 [Compound C3, 2-(4-chloro-2-fluoro-5-(2-oxo-2-(4-cyanophenyl)ethoxy)phenyl)-4,5,6,7-tetrahydro-1H-isoindole-1,3(2H)-dione] | 2 (Grade 2: the growth control rate is greater than or equal to 20% and less than 40%) | 3 (Grade 3: the growth control rate is greater than or equal to 40% and less than 60%) | 4 (Grade 4: the growth control rate is greater than or equal to 60% and less than 85%) | 5 (Grade 5: the growth control rate is greater than or equal to 85%) | 5 (Grade 5: the growth control rate is greater than or equal to 85%) | 5 (Grade 5: the growth control rate is greater than or equal to 85%) | 5 (Grade 5: the growth control rate is greater than or equal to 85%) | 5 (Grade 5: the growth control rate is greater than or equal to 85%) | 5 (Grade 5: the growth control rate is greater than or equal to 85%) | 5 (Grade 5: the growth control rate is greater than or equal to 85%) | 5 (Grade 5: the growth control rate is greater than or equal to 85%) | 5 (Grade 5: the growth control rate is greater than or equal to 85%) | 1 (Grade 1: the growth control rate is greater than or equal to 5% and less than 20%) | 2 (Grade 2: the growth control rate is greater than or equal to 20% and less than 40%) | 3 (Grade 3: the growth control rate is greater than or equal to 40% and less than 60%) | 171 to 178 °C | 5 (Grade 5: the growth control rate is greater than or equal to 85%) | 5 (Grade 5: the growth control rate is greater than or equal to 85%) | 5 (Grade 5: the growth control rate is greater than or equal to 85%)
